Data on four compounds can be found in patent publication US6166209A, “Piperidine derivatives” (Hoffmann-La Roche Inc., priority 1997, dated 2000).

Assay [1] has as its system mice. The conditions noted are these: intra-cerebroventricular; cited from earlier work.
Assay [2] concerns adenylate cyclase in CHO(LC 132^+) cells. The conditions noted are these: CHO(LC 132+) cells in culture; cited from earlier work.
Assay [3] concerns mice. The following applies: intra-cerebroventricular; cited from earlier work. The source holds these as a separate data set.
For a further assay, the system named is OFQ-R. The conditions noted are these: both in vitro and in vivo; cited from earlier work.
In assay [4] the target is T1, OFQ receptor (rat, LC132) (Rattus norvegicus, UniProt P35370).
T1 construct: expressed in transfected cells; host or cells: HEK-293 cells adapted to suspension growth (293s), vector pCEP4; total membrane fraction of 293s-OFQ-R cells
Nature of the assay: OFQ-R binding assay: [3H]-OFQ competition on membranes of 293s-OFQ-R cells. The conditions noted are these: Ki from IC50 by Cheng and Prusoff, at least 6 concentrations in triplicate, determined twice, read-out: OFQ pKi (converted). How it is done:
Methods of OFQ-R Binding Assay
HEK-293 cells adapted to suspension growth (293s) were cultured in HL medium plus 2% FBS. The cells were transfected with the rat OFQ receptor cDNA (LC132), FEBS Lett. 347, 284-288, 1994, cloned in the expression vector pCEP4 (Invitrogen, San Diego, Calif., USA) using lipofectin (Life Technologies, Bethesda, Md., USA). Transfected cells were selected in the presence of hygromycin (1000 U/ml) (Calbiochem, San Diego, Calif., USA). A pool of resistant cells was tested for OFQ-R expression by binding of [^3 H]-OFQ (Amersham PLC, Buckinghamshire, England). These cells (293s-OFQ-R) were expanded for large scale culture and membrane preparation.
293s-OFQ-R cells were harvested by centrifugation, washed 3 times with phosphate buffered saline (PBS) before resuspension in buffer A (50 mM Tris-HCl, pH 7.8, 5 mM MgCl2, 1 mM EGTA) and disruption with a tissue homogenizer (30 seconds, setting 4, Pt 20, Kinematica, Kriens-Lucern, Switzerland). A total membrane fraction was obtained by centrifugation at 49,000×g at 4° C. This procedure was repeated twice and the pellet was resuspended in buffer A. Aliquots were stored at -70° C. and protein concentrations were determined using the BCA™ Protein Assay Reagent (Pierce, Rockford, Ill.) following the manufacturer's recommendations.
[^3 H]-OFQ competition studies were carried out with 77 μg membrane protein in a final assay volume of 0.5 ml buffer A plus 0.1% BSA and 0.01% bacitracin (Boehringer-Mannheim, Mannheim, Germany) for one hour at room temperature. 50 nM unlabeled OFQ was used to define the non-specific binding. […] The retained radioactivity was counted on a Packard Top-Count microplate scintillation counter after addition of 40 μl of Microscint 40 (Canberra Packard). The effects of compounds were determined using at least 6 concentrations in triplicate, and determined twice. IC50 values were determined by curve fitting and these calues were converted to Ki values by the method of Cheng and Prusoff, Biochem. Pharmacol., 22, 3099, 1973.

Counter-ions that a name gives are not always drawn.

T1 sequence (P35370 whole entry): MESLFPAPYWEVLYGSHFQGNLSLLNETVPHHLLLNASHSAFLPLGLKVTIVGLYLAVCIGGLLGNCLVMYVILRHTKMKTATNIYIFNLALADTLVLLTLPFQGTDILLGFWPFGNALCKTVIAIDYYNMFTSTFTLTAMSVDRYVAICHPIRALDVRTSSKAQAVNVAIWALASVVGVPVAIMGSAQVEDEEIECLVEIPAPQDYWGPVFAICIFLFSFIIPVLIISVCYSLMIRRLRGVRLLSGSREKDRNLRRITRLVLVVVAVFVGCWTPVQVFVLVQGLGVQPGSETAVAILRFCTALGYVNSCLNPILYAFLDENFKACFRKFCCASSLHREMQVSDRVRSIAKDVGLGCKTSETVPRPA

On to “F-G-G-F-T-G-A-R-K-S-A-R-K-L-A-N-Q (FGGFTGARKSARKLANQ) [OFQ, seventeen amino-acid-long peptide isolated from rat brain, natural ligand for a G-protein coupled receptor (OFQ-R)]”, for which the hyperalgesia entry in the assay on mice [1] is on record as “induces hyperalgesia”. For the same compound, in assay [2], the “inhibition of adenylate cyclase” value is on record as “inhibits adenylate cyclase”. Further, in the assay with mice [3], the locomotive activity entry is “slows down locomotive activity”. Further, the “agonistic activity at the OFQ-R” value in the assay on OFQ-R is “exhibits agonistic activity”.
As to `O=C1OC2(CCN(CCNC3c4ccccc4CCc4ccccc43)CC2)c2ccccc21` [A/1, 1'-[2-(10,11-Dihydro-5H-dibenzo[a,d]cyclohepten-5-ylamino)-ethyl]-spiro[isobenzofuran-1,4'-piperidin]-3-one methansulfonate (1:2)], the Ki in assay [4] is 50.1 nM.
For `c1ccc2c(c1)CCCCC2NCCN1CCC2(CC1)OCc1ccccc12` (stereo not shown) [B/5, [2-(3H-Spiro[isobenzofuran-1,4'-piperidin]-1'yl)-ethyl]-(5,6,7,8-tetrahydro-4H-benzocyclohepten-4-yl)-amine hydrochloride (1:2)], in assay [4], the Ki was 100 nM.
`c1ccc(C(OCCN2CCC3(CC2)OCc2ccccc23)c2ccccc2)cc1` [Example C, 1'-(2Benzhydryloxy-ethyl)-3H-spiro[isobenzofuran-1,4'-piperidine]hydrochloride (1:1)]: the Ki in assay [4] was 12.6 nM.
